According to ChEMBL document CHEMBL1201862, “PubChem BioAssay data set” (2004):
Calls of active or inactive are those of the source.

Tests used:
[1] = tested on: Streptococcus sp. 'group A'; assay: growth inhibition of control SK(-) GAS strain, dose response, counter-screen for streptokinase expression inhibitor project, luminescence, kanamycin, BacTiterGlo, confirmation (AID 1900); type: functional, organism-based
[2] = cytotoxicity in KRAS-transformed pancreatic duct cells, primary screen, cell-based, fluorescence, HTS (AID 431); type: functional; details: Homo sapiens;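 also: cell line used: HPDE-C7K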
Streptococcus = assay: Group A Streptococcus viability loss, dose response, counter-screen for streptokinase expression inhibitor project, luminescence, BacTiterGlo (AID 1915); type: functional, organism-based;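 also: potency for reduction of bacterial viability or growth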
[3] = inhibitors of Bluetongue virus cytopathic effect, confirmation, arbovirus, BSR cells (AID 1250); type: functional;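 also: protection from viral cytopathic effect measured as cell viability by ATP luminescence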
[4] = cytotoxicity in HPDE-C7 cells, cell-based, fluorescence, HTS (AID 430); type: functional; details: Homo sapiens
[5] = HepG2 cell cytotoxicity, dose response, cytotoxicity control for Shn3 inhibitor project, CellTiter-Glo, cherry-picked (AID 624134); type: functional, cell-based
[6] = target: T1, Microphthalmia-associated transcription factor (Homo sapiens, UniProt O75030); assay: TRPM1 promoter luciferase signal decrease, dose response, MITF inhibitor project, cell-based, SK-MEL-5, cherry-picked, set 3 (AID 493073); type: functional
T1 sequence (O75030 whole entry): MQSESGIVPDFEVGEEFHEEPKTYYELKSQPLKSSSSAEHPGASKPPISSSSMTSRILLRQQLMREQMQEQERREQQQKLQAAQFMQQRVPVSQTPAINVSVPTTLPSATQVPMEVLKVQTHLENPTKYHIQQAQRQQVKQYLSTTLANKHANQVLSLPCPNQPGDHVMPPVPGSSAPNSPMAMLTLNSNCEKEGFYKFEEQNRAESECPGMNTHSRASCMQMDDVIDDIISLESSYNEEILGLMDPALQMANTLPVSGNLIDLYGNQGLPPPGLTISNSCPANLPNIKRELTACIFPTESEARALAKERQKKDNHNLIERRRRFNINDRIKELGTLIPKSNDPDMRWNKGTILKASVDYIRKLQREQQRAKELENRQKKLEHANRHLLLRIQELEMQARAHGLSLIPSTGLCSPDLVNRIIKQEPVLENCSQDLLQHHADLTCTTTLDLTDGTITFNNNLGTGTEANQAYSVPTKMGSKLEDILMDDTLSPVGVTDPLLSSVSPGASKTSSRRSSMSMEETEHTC

[7] = Luminescence-based counterscreen assay for KLF5 inhibitors: dose response cell-based high throughput screening assay to identify cytotoxic compounds using the IEC-6 intestinal epithelial cell line. [Related pubchem assays: 1700 (Primary screen.), 1834 (Confirmation screen.), 1858 (Summary AID.), 1905 (Counterscreen.)]; type: functional
Protein skinhead-1 = target: T2, Protein skinhead-1 (Caenorhabditis elegans, UniProt P34707); type: functional
T2 sequence (P34707 whole entry): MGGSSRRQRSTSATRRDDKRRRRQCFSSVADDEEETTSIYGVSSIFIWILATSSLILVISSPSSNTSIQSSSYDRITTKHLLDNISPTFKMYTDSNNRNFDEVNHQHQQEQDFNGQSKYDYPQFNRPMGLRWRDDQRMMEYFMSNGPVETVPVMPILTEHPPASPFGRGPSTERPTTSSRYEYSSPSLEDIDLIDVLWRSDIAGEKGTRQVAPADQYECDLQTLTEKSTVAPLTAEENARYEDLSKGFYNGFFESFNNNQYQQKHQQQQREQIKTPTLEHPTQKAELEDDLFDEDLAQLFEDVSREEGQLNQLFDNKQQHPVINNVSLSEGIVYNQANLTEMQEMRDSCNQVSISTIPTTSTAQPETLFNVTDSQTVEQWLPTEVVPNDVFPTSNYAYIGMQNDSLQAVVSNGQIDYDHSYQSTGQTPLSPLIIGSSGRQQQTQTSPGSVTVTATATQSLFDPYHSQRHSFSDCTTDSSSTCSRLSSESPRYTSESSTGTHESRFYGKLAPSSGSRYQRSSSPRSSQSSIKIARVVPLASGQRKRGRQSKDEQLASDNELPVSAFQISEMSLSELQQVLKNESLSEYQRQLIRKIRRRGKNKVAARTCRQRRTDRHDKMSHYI

[8] = target: Photoreceptor-specific nuclear receptor (Homo sapiens, UniProt Q9Y5X4); type: functional, cell-based;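 also: CHO-S cells with Gal4-NCOR and VP16-NR2E3 two-hybrid luciferase reporter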
[9] = Shn3 3'UTR reporter inhibitors, dose response, cell-based, Clone20 osteoblasts, firefly luciferase, cherry-picked (AID 624132); type: functional;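 also: firefly luciferase luminescence from reporter carrying the Shn3 3'UTR in osteoblasts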
[10] = reduction of Shn3 3'UTR firefly luciferase signal, dose response, Schnurri-3 inhibitor project, cell-based, Clone20 osteoblasts, cherry-pick, set 2 (AID 720490); type: functional;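 also: actives lower the luminescence signal as inhibitors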
[11] = target: Muscarinic acetylcholine receptor M4 (Rattus norvegicus, UniProt P08485); assay: Discovery of novel allosteric modulators of the M1 muscarinic receptor: Agonist NMS competition at M4. [Related pubchem assays: 626, 1488, 1741 ]; type: functional
[12] = target: Muscarinic acetylcholine receptor M3 (Homo sapiens, UniProt P20309); assay: (§1) Discovery of novel allosteric modulators of the M1 muscarinic receptor: Agonist NMS competition at M3. [Related pubchem assays: 1488 (Discovery of novel allosteric modulators of the M1 muscarinic receptor: Agonist Confirmation Assay), 626 (Discovery of Novel Allosteric Modulators of the M1 Muscarinic Receptor: Agonist Primary Screen)]; type: functional
[13] = target: Muscarinic acetylcholine receptor M1 (Rattus norvegicus, UniProt P08482); assay: Discovery of novel allosteric modulators of the M1 muscarinic receptor: Agonist NMS binding at M1. [Related pubchem assays: 626 ]
[14] = target: Muscarinic acetylcholine receptor M2 (Homo sapiens, UniProt P08172); assay: Discovery of novel allosteric modulators of the M1 muscarinic receptor: Agonist NMS competition at M2. [Related pubchem assays: 626 (Discovery of Novel Allosteric Modulators of the M1 Muscarinic Receptor: Agonist Primary Screen), 1488 (Discovery of novel allosteric modulators of the M1 muscarinic receptor: Agonist Confirmation Assay)]; type: functional
[15] = target: Muscarinic acetylcholine receptor M5 (Homo sapiens, UniProt P08912); assay: as §1, with “M5.” for “M3.”; type: functional
[16] = inhibitors of firefly luciferase expression or activity, dose response, H4 neuroglioma cells, luminescence (AID 1990); type: functional, cell-based
[17] = Vero cell cytotoxicity, dose response, cytotoxicity control for Vif-APOBEC3G degradation inhibitor project, Vero cells (AID 1117358); type: functional; details: Human immunodeficiency virus 1, Vero
NS3 = NS3 (Hepatitis C virus, UniProt A3EZJ3); assay: PubChem AID 2173; design: species or system Hepacivirus hominis
[18] = Luminescence Cell-Based Dose Response HTS to Identify Inhibitors of 5'UTR Stem-Loop Driven Prion Protein mRNA Translation in H4 Neuroglioblastoma Cells. [Related pubchem assays: 1827 (Project Summary), 1813 (Primary HTS)]; type: functional
[19] = inhibitors of SNCA 5'UTR-driven reporter translation, confirmation, H4 neuroglioma cells, luminescence (AID 1988); type: functional, cell-based
[20] = target: T3, Sphingosine 1-phosphate receptor 4 (Homo sapiens, UniProt O95977); assay: Late stage fluorescence dose response cell-based screening assay for antagonists of the Sphingosine 1-Phosphate Receptor 4 (S1P4). [Related pubchem assays: 1524 (Confirmation screen (S1P4 antagonists).), 1510 (Primary screen (S1P4 antagonists).), 1853 (Summary AID (S1P4 antagonists).), 1692 (Dose response screen (S1P4 antagonists).)]; type: functional
T3 sequence (O95977 whole entry): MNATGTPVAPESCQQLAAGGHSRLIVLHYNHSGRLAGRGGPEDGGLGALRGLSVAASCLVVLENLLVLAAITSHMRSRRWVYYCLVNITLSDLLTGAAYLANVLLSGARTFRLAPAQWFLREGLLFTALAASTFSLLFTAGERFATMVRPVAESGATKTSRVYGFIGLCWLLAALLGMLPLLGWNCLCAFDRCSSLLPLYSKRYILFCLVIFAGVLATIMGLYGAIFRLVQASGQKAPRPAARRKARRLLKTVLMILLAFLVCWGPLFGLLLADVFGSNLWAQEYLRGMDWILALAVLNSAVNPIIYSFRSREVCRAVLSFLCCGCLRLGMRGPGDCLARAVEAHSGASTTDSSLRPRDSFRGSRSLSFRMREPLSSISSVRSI

[21] = target: T4, Sphingosine 1-phosphate receptor 1 (Homo sapiens, UniProt P21453); assay: Late stage counterscreen assay for S1P4 antagonists: Fluorescence dose response cell-based screening assay for antagonists of the Sphingosine 1-Phosphate Receptor 1 (S1P1). [Related pubchem assays (depositor defined):AID1510, AID1524, AID1692, AID1853, AID2332, AID489009, AID489017]; type: functional
[22] = target: T3, Sphingosine 1-phosphate receptor 4; assay: Fluorescence dose response cell-based high throughput screening assay for antagonists of the Sphingosine 1-Phosphate Receptor 4 (S1P4). [Related pubchem assays: 1524 (Confirmation in triplicates.), 1510 (Primary screen.)]; type: functional
[23] = target: Sphingosine 1-phosphate receptor 5 (Homo sapiens, UniProt Q9H228); assay: Late stage counterscreen assay for S1P4 antagonists: Fluorescence dose response cell-based screening assay for antagonists of the Sphingosine 1-Phosphate Receptor 5 (S1P5). [Related pubchem assays (depositor defined):AID1510, AID1524, AID1692, AID1853, AID2332, AID489009, AID489017]; type: functional
Paired box protein Pax-8 = Paired box protein Pax-8 (Homo sapiens, UniProt Q06710); assay: inhibitors of PAX8-driven TPO luciferase reporter, dose response, RMG-I cells, cherry-pick (AID 687027); type: functional, cell-based;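 also: luciferase reporter driven by Pax8 target thyroperoxidase promoter measured by SteadyGlo luminescence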
[24] = target: T4, Sphingosine 1-phosphate receptor 1; type: functional
Streptokinase A = target: T5, Streptokinase A (Streptococcus pyogenes serotype M1, UniProt P10520); assay: S. pyogenes streptokinase expression inhibitors, potency, dose response, plasminogen activation absorbance, OD405 (AID 1914); type: functional, Streptococcus pyogenes M1 GAS;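 also: secreted streptokinase activity via plasminogen activation per viability signal from cell pellet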
T5 sequence (P10520 whole entry): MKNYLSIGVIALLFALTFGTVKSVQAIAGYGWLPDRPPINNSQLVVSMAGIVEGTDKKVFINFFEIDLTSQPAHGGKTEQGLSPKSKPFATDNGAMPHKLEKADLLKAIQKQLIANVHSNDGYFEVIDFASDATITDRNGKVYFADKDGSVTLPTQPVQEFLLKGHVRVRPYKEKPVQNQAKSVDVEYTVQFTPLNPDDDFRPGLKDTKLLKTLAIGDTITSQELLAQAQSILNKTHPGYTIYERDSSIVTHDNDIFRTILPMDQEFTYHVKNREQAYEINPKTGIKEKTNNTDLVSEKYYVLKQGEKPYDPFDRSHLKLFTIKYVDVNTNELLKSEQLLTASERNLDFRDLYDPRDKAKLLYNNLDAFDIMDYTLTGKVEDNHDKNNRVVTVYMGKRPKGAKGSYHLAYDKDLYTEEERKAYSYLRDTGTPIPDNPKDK

[25] = target: Sphingosine 1-phosphate receptor 2 (Homo sapiens, UniProt O95136); assay: Late stage counterscreen assay for S1P4 antagonists: Fluorescence dose response cell-based screening assay for antagonists of the Sphingosine 1-Phosphate Receptor 2 (S1P2). [Related pubchem assays (depositor defined):AID1510, AID1524, AID1692, AID1853, AID2332, AID489009, AID489017]; type: functional
[26] = cytotoxicity toward NIH3T3 fibroblasts, dose response, counter-screen, cell-based, ATP luminescence, mouse fibroblasts (AID 2010); type: functional;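 also: cells exposed to compound for about 90 hours before reading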
[27] = target: Sphingosine 1-phosphate receptor 3 (Homo sapiens, UniProt Q99500); assay: Late stage counterscreen assay for S1P4 antagonists: Fluorescence dose response cell-based screening assay for antagonists of the Sphingosine 1-Phosphate Receptor 3 (S1P3). [Related pubchem assays (depositor defined):AID1510, AID1524, AID1692, AID1853, AID2332, AID489009, AID489017]; type: functional
[28] = inhibitors of intracellular T. cruzi replication, confirmation, NIH3T3 host cells, beta-gal luminescence (AID 2044); type: functional, cell-based;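 also: intracellular parasites grown in NIH/3T3 mouse fibroblasts as host cells; luminescent beta-galactosidase reporter signal from transgenic T. cruzi replicating inside host cells; inhibitors lower the luminescence signal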

T4 sequence (P21453 whole entry): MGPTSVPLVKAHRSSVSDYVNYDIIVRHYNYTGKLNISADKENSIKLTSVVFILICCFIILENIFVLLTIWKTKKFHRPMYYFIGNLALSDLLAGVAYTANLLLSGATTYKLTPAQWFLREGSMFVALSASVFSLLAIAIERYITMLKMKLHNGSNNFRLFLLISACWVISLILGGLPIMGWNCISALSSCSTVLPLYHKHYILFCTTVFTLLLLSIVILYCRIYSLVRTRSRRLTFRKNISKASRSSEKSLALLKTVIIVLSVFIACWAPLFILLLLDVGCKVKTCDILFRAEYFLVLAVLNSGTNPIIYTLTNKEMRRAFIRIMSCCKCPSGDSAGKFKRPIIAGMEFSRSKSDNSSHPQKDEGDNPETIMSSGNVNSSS
Muscarinic acetylcholine receptor M1, sequence (P08482 whole entry): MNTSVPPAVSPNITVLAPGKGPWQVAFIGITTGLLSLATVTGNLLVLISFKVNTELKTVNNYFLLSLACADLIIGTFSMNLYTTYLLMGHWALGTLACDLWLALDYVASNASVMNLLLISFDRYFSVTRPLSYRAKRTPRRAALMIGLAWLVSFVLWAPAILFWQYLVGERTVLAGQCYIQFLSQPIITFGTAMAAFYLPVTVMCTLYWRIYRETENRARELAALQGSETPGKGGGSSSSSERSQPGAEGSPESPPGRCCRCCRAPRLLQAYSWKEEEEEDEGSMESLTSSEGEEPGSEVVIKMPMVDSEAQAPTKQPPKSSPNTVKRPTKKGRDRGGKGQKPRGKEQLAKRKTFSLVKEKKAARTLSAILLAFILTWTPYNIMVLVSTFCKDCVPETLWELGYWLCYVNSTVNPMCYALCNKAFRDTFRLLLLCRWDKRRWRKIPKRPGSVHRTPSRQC
Photoreceptor-specific nuclear receptor, sequence (Q9Y5X4 whole entry, the tested form may be a part): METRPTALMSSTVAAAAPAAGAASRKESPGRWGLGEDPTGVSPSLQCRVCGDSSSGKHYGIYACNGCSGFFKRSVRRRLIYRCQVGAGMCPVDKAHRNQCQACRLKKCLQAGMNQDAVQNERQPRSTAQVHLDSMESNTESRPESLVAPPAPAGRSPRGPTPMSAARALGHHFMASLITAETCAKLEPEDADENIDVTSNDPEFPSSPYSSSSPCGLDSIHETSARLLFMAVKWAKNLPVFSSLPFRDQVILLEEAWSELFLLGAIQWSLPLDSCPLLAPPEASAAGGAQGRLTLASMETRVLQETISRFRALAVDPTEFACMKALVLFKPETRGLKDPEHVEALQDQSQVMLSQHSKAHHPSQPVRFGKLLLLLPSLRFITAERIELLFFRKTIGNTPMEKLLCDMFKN
Muscarinic acetylcholine receptor M5, sequence (P08912 whole entry): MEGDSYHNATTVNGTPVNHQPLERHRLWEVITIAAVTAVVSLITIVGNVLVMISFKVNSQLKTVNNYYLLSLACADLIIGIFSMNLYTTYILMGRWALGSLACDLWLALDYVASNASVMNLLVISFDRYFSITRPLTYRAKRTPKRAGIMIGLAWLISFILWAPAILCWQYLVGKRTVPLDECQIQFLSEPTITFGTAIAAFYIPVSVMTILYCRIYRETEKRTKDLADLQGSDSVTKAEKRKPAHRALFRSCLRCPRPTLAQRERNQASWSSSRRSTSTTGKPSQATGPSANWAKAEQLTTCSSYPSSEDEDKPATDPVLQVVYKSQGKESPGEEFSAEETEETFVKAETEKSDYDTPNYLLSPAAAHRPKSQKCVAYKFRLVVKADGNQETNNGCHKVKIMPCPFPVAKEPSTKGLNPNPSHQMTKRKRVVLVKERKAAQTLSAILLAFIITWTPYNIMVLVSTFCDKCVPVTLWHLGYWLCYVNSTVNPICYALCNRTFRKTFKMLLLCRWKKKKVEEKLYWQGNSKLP
Muscarinic acetylcholine receptor M2, sequence (P08172 whole entry): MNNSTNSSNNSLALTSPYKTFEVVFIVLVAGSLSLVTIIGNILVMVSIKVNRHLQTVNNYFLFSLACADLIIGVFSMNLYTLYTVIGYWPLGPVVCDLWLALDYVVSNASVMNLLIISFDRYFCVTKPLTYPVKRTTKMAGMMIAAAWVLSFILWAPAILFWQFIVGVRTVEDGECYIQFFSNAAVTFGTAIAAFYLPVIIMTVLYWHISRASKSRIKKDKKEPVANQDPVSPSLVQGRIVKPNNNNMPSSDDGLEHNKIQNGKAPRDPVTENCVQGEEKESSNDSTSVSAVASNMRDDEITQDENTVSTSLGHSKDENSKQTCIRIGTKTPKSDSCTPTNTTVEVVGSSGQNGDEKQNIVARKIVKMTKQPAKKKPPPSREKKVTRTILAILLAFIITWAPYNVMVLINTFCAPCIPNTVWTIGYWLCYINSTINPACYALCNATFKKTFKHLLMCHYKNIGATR
Muscarinic acetylcholine receptor M4, sequence (P08485 whole entry): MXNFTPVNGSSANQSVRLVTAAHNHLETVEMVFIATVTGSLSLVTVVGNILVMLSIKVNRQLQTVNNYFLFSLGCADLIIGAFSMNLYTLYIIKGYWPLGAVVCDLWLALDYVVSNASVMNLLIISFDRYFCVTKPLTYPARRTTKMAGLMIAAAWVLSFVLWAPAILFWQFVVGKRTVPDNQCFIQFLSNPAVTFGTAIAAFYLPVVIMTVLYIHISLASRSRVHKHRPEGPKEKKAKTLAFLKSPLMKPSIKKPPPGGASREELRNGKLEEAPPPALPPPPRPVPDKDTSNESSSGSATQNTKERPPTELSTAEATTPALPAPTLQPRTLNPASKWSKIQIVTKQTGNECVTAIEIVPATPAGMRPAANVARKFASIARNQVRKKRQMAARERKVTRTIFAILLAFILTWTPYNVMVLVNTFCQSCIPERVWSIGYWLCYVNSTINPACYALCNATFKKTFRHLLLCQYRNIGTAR
NS3, sequence (A3EZJ3 whole entry): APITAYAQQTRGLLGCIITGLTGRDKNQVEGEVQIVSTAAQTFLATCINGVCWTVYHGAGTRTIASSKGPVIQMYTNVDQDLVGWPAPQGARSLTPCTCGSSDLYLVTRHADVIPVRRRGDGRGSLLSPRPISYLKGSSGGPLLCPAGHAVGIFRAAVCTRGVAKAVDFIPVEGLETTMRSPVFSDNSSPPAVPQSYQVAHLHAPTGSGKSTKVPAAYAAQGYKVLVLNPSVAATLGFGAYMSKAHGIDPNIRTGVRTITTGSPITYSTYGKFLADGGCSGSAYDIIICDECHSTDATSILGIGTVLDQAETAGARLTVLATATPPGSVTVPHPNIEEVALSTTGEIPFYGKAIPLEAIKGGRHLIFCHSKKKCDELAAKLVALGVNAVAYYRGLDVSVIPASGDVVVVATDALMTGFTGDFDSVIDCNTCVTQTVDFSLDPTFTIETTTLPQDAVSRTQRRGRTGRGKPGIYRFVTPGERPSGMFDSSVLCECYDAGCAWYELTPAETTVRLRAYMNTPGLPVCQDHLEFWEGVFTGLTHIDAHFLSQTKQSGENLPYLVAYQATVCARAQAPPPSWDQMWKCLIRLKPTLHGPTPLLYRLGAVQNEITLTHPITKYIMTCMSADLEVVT
Muscarinic acetylcholine receptor M3, sequence (P20309 whole entry): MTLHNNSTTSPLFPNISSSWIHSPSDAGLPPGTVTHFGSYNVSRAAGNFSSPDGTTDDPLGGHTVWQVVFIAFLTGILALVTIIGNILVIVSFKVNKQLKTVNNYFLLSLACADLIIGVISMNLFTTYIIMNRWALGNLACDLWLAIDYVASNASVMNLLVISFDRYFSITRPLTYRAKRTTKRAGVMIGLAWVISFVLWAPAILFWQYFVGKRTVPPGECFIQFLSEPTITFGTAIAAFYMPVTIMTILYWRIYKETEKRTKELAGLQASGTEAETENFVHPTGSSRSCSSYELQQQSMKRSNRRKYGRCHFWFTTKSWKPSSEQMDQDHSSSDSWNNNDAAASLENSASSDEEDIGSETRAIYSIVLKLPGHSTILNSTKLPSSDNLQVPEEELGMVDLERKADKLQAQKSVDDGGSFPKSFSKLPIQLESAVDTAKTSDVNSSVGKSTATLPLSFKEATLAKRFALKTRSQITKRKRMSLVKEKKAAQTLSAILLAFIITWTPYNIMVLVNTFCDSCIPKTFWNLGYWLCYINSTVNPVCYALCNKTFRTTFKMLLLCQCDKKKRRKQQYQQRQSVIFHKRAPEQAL
Sphingosine 1-phosphate receptor 3, sequence (Q99500 whole entry): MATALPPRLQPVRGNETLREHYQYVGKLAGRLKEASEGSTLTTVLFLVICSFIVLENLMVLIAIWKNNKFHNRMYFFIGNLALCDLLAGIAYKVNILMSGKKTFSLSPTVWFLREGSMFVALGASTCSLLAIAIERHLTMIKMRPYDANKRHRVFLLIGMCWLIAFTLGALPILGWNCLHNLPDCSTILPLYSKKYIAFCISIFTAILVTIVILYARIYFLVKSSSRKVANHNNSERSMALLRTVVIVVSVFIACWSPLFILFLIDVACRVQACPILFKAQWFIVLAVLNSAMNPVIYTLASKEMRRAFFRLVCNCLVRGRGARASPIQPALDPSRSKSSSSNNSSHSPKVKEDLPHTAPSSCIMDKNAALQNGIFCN
Paired box protein Pax-8, sequence (Q06710 whole entry): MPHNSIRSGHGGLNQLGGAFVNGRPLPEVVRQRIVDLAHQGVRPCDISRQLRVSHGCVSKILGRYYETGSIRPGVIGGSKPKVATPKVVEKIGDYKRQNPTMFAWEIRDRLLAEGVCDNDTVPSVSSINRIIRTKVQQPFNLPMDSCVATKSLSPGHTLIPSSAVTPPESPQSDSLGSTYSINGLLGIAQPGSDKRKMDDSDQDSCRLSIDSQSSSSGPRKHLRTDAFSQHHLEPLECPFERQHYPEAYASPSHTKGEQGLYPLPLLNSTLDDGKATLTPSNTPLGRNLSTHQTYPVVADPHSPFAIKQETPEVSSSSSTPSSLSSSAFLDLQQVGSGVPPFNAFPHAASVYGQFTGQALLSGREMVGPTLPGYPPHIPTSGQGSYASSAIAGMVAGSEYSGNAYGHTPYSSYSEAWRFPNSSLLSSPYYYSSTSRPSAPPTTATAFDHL

For `CCOC(=O)C1=Nc2ccccc2C1=[N+]=[N-]`, the EC50 [1] was 379 nM (active), the EC50 [2] was 7.83 µM (active) and the EC50 (Streptococcus) was 2.27 µM (active). For the same compound, the IC50 [3] was 21.4 µM (active) and the EC50 [4] was 19.9 µM (active).
With `CC(C)(C)C(=O)Nc1cc2nn(-c3ccccc3)nc2cc1Cl` the AC50 [5] was > 70 µM (inactive), the AC50 [6] was 495 nM (active) and the IC50 [7] was > 39.8 µM (not active). The IC50 (Protein skinhead-1) was > 100 µM (inactive), the IC50 [8] was 152 nM (active) and the AC50 [9] was 5.16 µM (active). The AC50 [10] was 49.5 µM (active).
In the case of `CCOC(=O)N1CCC(NCCNC(=O)c2ccccc2C)CC1`, the EC50 [11] was 240 µM (inconclusive), the EC50 [12] was 360 µM (inconclusive) and the EC50 [13] was 25.1 µM (inconclusive). The EC50 [14] was 95.7 µM (inconclusive) and the EC50 [15] was 24.1 µM (inconclusive).
For `O=c1c2c(-c3ccco3)csc2nc(SCc2cn3cccnc3n2)n1-c1ccccc1`, the EC50 [16] was 13.9 µM (active), the CC50 [17] was > 40 µM (active) and the IC50 (NS3) was 49.7 µM (not active). For the same compound, the EC50 [18] was > 120 µM (not active) and the EC50 [19] was 38.5 µM (active).
With `O=C(Nc1ccccc1)Nc1cc(OCC(F)(F)F)cc(OCC(F)(F)F)c1` the AC50 [5] was 6.97 µM (active), the EC50 [1] was 4560 nM (active) and the IC50 [20] was 82.7 nM (active). The EC50 [16] was 6.81 µM (active), the IC50 [21] was > 25 µM (inactive) and the EC50 (Streptococcus) was 9.63 µM (active). The IC50 [22] was 260 nM (active), the IC50 [23] was 1.3 µM (active) and the AC50 (Paired box protein Pax-8) was 6.93 µM (active). For the same compound, the IC50 [24] was > 49.8 µM (not active), the EC50 (Streptokinase A) was 18.1 µM (active) and the IC50 [25] was 2.35 µM (active). For the same compound, the AC50 [9] was 6.4 µM (active), the EC50 [26] was < 6 µM (inconclusive) and the EC50 [18] was 7.18 µM (active). The IC50 [27] was 1.68 µM (active), the EC50 [28] was 719 nM (active) and the EC50 [19] was 6.09 µM (active).
